From patent publication US20140194477A1, “KINASE PROTEIN BINDING INHIBITORS” (Roswell Park Cancer Institute, priority 2011, published 2014)

Test system: CD-1 mice
Assay: 28-day multiple-dose toxicologic study, IP, CD-1 mice
Type: in vivo, mouse
Description: A 28-day, multiple-dose toxicologic study of the chemical 1,2,4,5-Benzenetetramine tetrahydrochloride was performed in CD-1 mice.
• 1,2,4,5-benzenetetramine tetrahydrochloride. The test article was prepared in PBS (physiologic buffered saline). The test article was prepared by the sponsor and delivered to the study director prior to the study. The test article was stored in the freezer (0° C.), protected from light.
• PBS (physiologic buffered saline), • Test System: • The CD-1 [Hsd:ICR(CD-l)] albino mouse was used. The CD-1 mouse is conventionally used in 28 day toxicity tests to provide information on which human hazards can be judged, and is one of the choices of species preferred by regulatory agencies. Mice were obtained from Harlan (Frederick, MD). • Mice were acclimated for 2 days prior to testing. 12 male and 12 female mice, nulliparous and non-pregnant, were used. Normal weight gain, appearance and behavior were factors used to select healthy mice for testing. Only naive animals were used. Mice were 7 weeks old (males) and 9 weeks old (females), weighed 21-26 grams (males) and 17-23 grams (females), and were in good health at the start of the study. Mice were 11 weeks old (males) and 13 weeks old (females), weighed 20-32 grams (males) and 19-26 grams (females) at the conclusion of the study. • Mice were randomly assigned to 4 experimental groups (high-dose, medium-dose, low-dose, and controls) consisting of 3 males and 3 females. Mice were identified via cage cards, tail markings, and ear punch. Mouse identification is summarized in Table 1. • Mice were fed autoclaved Harlan-Teklad sterilizable 7012 mouse/rat diet ad libitum. The feed is routinely analyzed by the manufacturer for nutritional components and environmental contaminants. Tap water acidified to a pH of 2.5-3.5 was provided in autoclaved water bottles ad libitum. Municipal water supply is analyzed by the Bureau Veritas Consumer Product Services of Buffalo, N.Y. on an annual basis. There are no known contaminants in the feed or water provided to the test animals that would be expected to interfere with this study. • Mice were group-housed, 3 to a cage, in autoclaved polycarbonate/polysulfone microisolator cages with autoclaved contact bedding (bed ′o cobs, Anderson's Industrial Products Group). • Environmental conditions in the animal housing room were maintained at an ambient temperature of 70±3°, relative humidity of 30-70%, and a 12:12 light-dark cycle. Animal housing rooms were ventilated with 100% fresh, HEPA filtered air with 10-15 air changes per hour.
• A 28-day multiple-dose toxicology study was performed.
The test article (1,2,4,5-benzenetetramine tetrahydrochloride) was prepared in PBS (the control article) and administered intraperiotoneally (IP) as 20 doses once daily on days 0-4, 7-11, 14-18, and 21-25 in the morning. The compound was diluted so as not to exceed a volume of 0.1 mL.
The test article (1,2,4,5-benzenetetramine tetrahydrochloride) was stored in the freezer (0° C.) and thawed to room temperature prior to injection. Mice were randomly allocated into 4 groups (control, low-dose, medium-dose, and high-dose) consisting of 3 males and 3 females, Dosages were calculated on a “per mouse” basis, not on a mg/kg basis. Mice in the low-dose group received the equivalent of a 15 mg/kg dose for a 20 g mouse (0.3 mg). Mice in the medium-dose group received the equivalent of a 30 mg/kg dose for a 20 g mouse (0.6 mg). Mice in the high-dose group received the equivalent of a 45 mg/kg dose for a 20 g mouse (0.9 mg). Mice in the control group received 0.1 mL of PBS (phosphate-buffered saline). Groups received the following doses, as outlined in table 1: […]

[1] = IP, 28-day study, high-dose group

Cl.Cl.Cl.Cl.Nc1cc(N)c(N)cc1N [Y15, 1,2,4,5-benzenetetraamine tetrahydrochloride]
toxicity (summary statement) (30 mg/kg by ip administration, duration 28 days): no toxicity
pain following injection (IP, 20 daily doses over 28 days, 15, 30, 45 mg/kg equivalent): pain following injection in all dose groups
clinical chemistry changes (IP, 28-day study): not associated with any changes in clinical chemistry that were statistically and clinically significant
gross and histopathologic findings (IP, 28-day study, all dose groups): gross and histopathologic peritonitis in mice in all dose groups
mean body weights (IP, 28-day study, high dose group (45 mg/kg equivalent)): statistically significant lowered mean body weights
hematologic changes [1]: Some statistically and clinically significant hematologic changes
mortality [1]: unexpected mortality in the high-dose group
clinical signs (IP, 28-day study, medium (30 mg/kg) and high (45 mg/kg) dose groups): clinical signs consistent with general malaise and peritonitis
weight loss (IP, 28-day study, medium- and high-dose groups): weight loss in the medium- and high-dose groups
